Values quoted from earlier work as cited in patent US11896569B2, “Compositions comprising amino acids for use in the treatment of mucositides in neoplasia patients undergoing radiation therapy and/or chemotherapy” (priority 2015, dated 2024).

Columns and labels:
mucositis = conditions: 16 grams per day
[1] = system: patients suffering from head and neck cancer

NC(=O)CC[C@H](N)C(=O)O [glutamine]
treatment/prevention of mucositis (mucositis): significant results in the treatment/prevention of mucositis were not observed | efficacy for the treatment of mucositis ([1]; between 10 and 26 grams/day): ineffective | severity of mucositis induced by antitumor treatments ([1]; daily dose of 30 g): significantly decreases the severity of mucositis
